Assay results taken from US10507212B2, “Method for use of homopiperazinium compounds in the treatment of cancer” (UNIVERSITÉ LAVAL, priority 2014, dated 2019).
Where a name gives a salt, the structure may show the parent alone. Read-outs that look alike come from different tables or passages of the source.

Columns and labels:
[1] = system: H520 squamous cell carcinoma; assay: Cell proliferation assay, H520 (MTT); format: cell-based
Method: (§1) In vitro experiments were conducted on four cancer cell lines: the A549 adenocarcinoma cell line, the H520 squamous cell carcinoma the H82 small cell lung carcinoma and Calu 3 lung adenocarcinoma. The A549 tumor cells, were plated at a density of 1.5×10^4 cells per mL and let to adhere on 96-well microplates in F12K cell culture medium enriched with 10% fetal calf serum (FCS). The H520, H82 and Calu 3 tumor cells were plated at a density of 5×10^4 cells per mL in RPMI+10% FCS. After 24 h in culture, the medium was changed and cells were exposed to ASM-024 at concentrations ranging from 10^−7M to 10^−3M (FIGS. 1A-1C). After 3 and 6 days in culture, cell growth was quantified using the MTT colorimetric assay (M2128, Sigma) at 575-690 nm or the Cell Titer fluorescence assay (G8080, Promega) at 560/590 nm.
(§2) In an another set of experiments, a series of 16 other homopiperazinium compounds, in addition to ASM-024, were tested for their anti-proliferative effect on the four tumor cell lines described above after up to 6 days in culture at concentrations of 10^-7M to 10^-3M. (FIGS. 4A-4E) Cell growth was quantified using the MTT colorimetric assay for the A-549, H520 and Calu 3 cell lines and the CellTiter Fluorescence assay.for the H82 tumor cell line These are established method of determining viable cell number in proliferation studies.

[2] = system: H82 small cell lung carcinoma; assay: Cell proliferation assay, H82 (CellTiter fluorescence); format: cell-based; settings: for inhibition at 300 µM / inhibition at 100 µM / IC50: Homo sapiens; for inhibition at 300 µM / inhibition at 100 µM: read-out: % Inhibition of Cell Growth at day 3 compared to vehicle-treated cells
Method: as §1, §2

[3] = system: A549 adenocarcinoma cell line; assay: Cell proliferation assay, A549 (MTT)
Method: as §1, §2

[4] = system: Calu 3 lung adenocarcinoma; assay: Cell proliferation assay, Calu 3 (MTT); format: cell-based; settings: Homo sapiens
Method: as §1, §2

[5] = H520, day 3 in culture, read-out: IC50 Day 3
[6] = H520, day 6 in culture, read-out: IC50 Day 6
[7] = read-out: IC50 Day 3, A549, day 3 in culture
[8] = read-out: IC50 Day 6, A549, day 6 in culture
[9] = Homo sapiens, NCI-H520, 72 h, H520, day 3 in culture, read-out: IC50 Day 3
[10] = Homo sapiens, NCI-H520, 144 h, H520, day 6 in culture, read-out: IC50 Day 6
[11] = NCI-H82, 72 h, H82, day 3, 3 × 10^−4M
[12] = NCI-H82, 72 h, H82, day 3, 10^−4M
[13] = Homo sapiens, A549, 72 h, read-out: IC50 Day 3, A549, day 3 in culture
[14] = Homo sapiens, A549, 144 h, read-out: IC50 Day 6, A549, day 6 in culture
[15] = Homo sapiens, NCI-H520, 72 h, read-out: IC50 Day 3, H520, day 3 in culture
[16] = Homo sapiens, NCI-H520, 144 h, read-out: IC50 Day 6, H520, day 6 in culture
[17] = 72 h, Calu 3, day 3 in culture, read-out: IC50 Day 3
[18] = 144 h, Calu 3, day 6 in culture, read-out: IC50 Day 6
[19] = NCI-H82, 72 h, H82, day 3 in culture, read-out: IC50 Day 3
[20] = NCI-H82, 144 h, H82, day 6 in culture, read-out: IC50 Day 6
[21] = NCI-H82, 72 h, read-out: IC50 Day 3
[22] = NCI-H82, 144 h, read-out: IC50 Day 6

Structure (SMILES): C[N+]1(C)CCCN(c2ccc(C(F)(F)F)cc2)CC1 (as salt: iodide) [ASM-071, 4-Dimethyl-1-(4-trifluorophenyl)-homopiperazinium Iodide]
- melting point: 224.3 to 225.4 °C

Structure (SMILES): C[N+]1(C)CCCN(c2ccc(C(F)(F)F)cc2)CC1 (as salt: tosylate) [ASM-058, 1,1-Dimethyl-4-(4-trifluoromethylphenyl)-homopiperazinium Tosylate]
- melting point: 212.6 to 213.4 °C

Structure (SMILES): Cc1cccc(N2CCC[N+](C)(C)CC2)c1 (as salt: tosylate) [ASM-068, 4-Dimethyl-1-(3-methylphenyl)-homopiperazinium Tosylate]
- melting point: 161.6 to 162.5 °C

Structure (SMILES): CC[N+]1(CC)CCCN(c2ccc(O)cc2)CC1 (as salt: tosylate) [ASM-073, 1,1-Diethyl-4-(phenyl-4-hydroxy)-homopiperazinium tosylate]
- melting point: 144 to 145.5 °C

Structure (SMILES): CC[N+]1(CC)CCCN(c2ccccc2)CC1.[I-] [ASM-009, 1,1-Diethyl-4-phenyl-homopiperazinium Iodide]
- IC50 [1, 5]: 892 ± 98 µM
- IC50 [1, 6]: 396 ± 147 µM
- % Inhibition of Cell Growth at day 3 compared to vehicle-treated cells ([2]; H82, day 3, 3 × 10^−4M): 35%
- % Inhibition of Cell Growth at day 3 compared to vehicle-treated cells ([2]; H82, day 3, 10^−4M): −12%
- IC50 [3, 7]: 51 ± 6 µM
- IC50 [3, 8]: 48 ± 25 µM

Structure (SMILES): C[N+]1(C)CCCN(c2ccccn2)CC1 [ASM-016, 1,1-Dimethyl-4-(2-pyridyl)-homopiperazinium Iodide]
- IC50 [1, 9]: 415 ± 212 µM
- IC50 [1, 10]: 180 ± 92 µM
- inhibition at 300 µM [2, 11]: -6%
- inhibition at 100 µM [2, 12]: -22%
- IC50 [3, 13]: 90 ± 15 µM
- IC50 [3, 14]: 58 ± 22 µM

Structure (SMILES): CC[N+]1(C)CCCN(c2ccccn2)CC1 (stereo not drawn) [ASM-017, 1-Ethyl-1-methyl-4-(2-pyridyl)-homopiperazinium Iodide]
- IC50 [1, 15]: 953 ± 39 µM
- IC50 [1, 16]: 469 ± 163 µM
- inhibition at 100 µM ([2]; NCI-H82, 72 h): -26%
- inhibition at 300 µM ([2]; NCI-H82, 72 h): -6%
- IC50 [3, 13]: 89 ± 13 µM
- IC50 [3, 14]: 65 ± 25 µM

Structure (SMILES): CCC[N+]1(C)CCCN(c2ccccn2)CC1 (stereo not drawn) [ASM-018, 1-Methyl-1-propyl-4-(2-pyridyl)-homopiperazinium Iodide]
- IC50 [1, 9]: > 1000 µM
- IC50 [1, 10]: 536 ± 101 µM
- inhibition at 300 µM [2, 11]: 35%
- inhibition at 100 µM [2, 12]: 15%
- IC50 [3, 13]: 136 ± 39 µM
- IC50 [3, 14]: 82 ± 32 µM

Structure (SMILES): CC[N+]1(CC)CCCN(c2ccccc2)CC1.[Br-] [ASM-021, 1,1-Diethyl-4-phenyl-homopiperazinium Bromide]
- IC50 [1, 5]: > 1000 µM
- IC50 [1, 10]: 369 ± 171 µM
- % Inhibition of Cell Growth at day 3 compared to vehicle-treated cells ([2]; H82, day 3, 3 × 10^−4M): 59%
- % Inhibition of Cell Growth at day 3 compared to vehicle-treated cells ([2]; H82, day 3, 10^−4M): 13%
- IC50 [3, 13]: 45 ± 12 µM
- IC50 [3, 14]: 51 ± 39 µM

Structure (SMILES): CC[N+]1(CC)CCCN(c2ccccc2)CC1.[Cl-] [ASM-022, 1,1-Diethyl-4-phenyl-homopiperazinium Chloride]
- IC50 [1, 5]: > 700 µM
- IC50 [1, 6]: 387 ± 178 µM
- % Inhibition of Cell Growth at day 3 compared to vehicle-treated cells ([2]; H82, day 3, 3 × 10^−4M): 55%
- % Inhibition of Cell Growth at day 3 compared to vehicle-treated cells ([2]; H82, day 3, 10^−4M): 23%
- IC50 [3, 7]: 46 ± 7 µM
- IC50 [3, 8]: 45 ± 32 µM

Structure (SMILES): CC[N+]1(CC)CCCN(c2ccccn2)CC1 [ASM-037, 1,1-Diethyl-4-(2-pyridyl)-homopiperazinium Tosylate]
- IC50 [1, 9]: > 1000 µM
- IC50 [1, 10]: 634 ± 124 µM
- inhibition at 300 µM [2, 11]: 29%
- inhibition at 100 µM [2, 12]: 10%
- IC50 [3, 13]: 146 ± 92 µM
- IC50 [3, 14]: 112 ± 96 µM

Structure (SMILES): CC[N+]1(CC)CCCN(c2ccc(Cl)cc2)CC1 [ASM-048, 1,1-Diethyl-4-(4-chlorophenyl)-homopiperazinium Tosylate]
- IC50 [4, 17]: 276 µM
- IC50 [4, 18]: 86 µM
- IC50 [1, 9]: 322 µM
- IC50 [1, 10]: 169 µM
- IC50 [2, 19]: 246 µM
- IC50 [2, 20]: 176 µM
- IC50 [3, 13]: 37 µM
- IC50 [3, 14]: 15 µM

Structure (SMILES): CC[N+]1(CC)CCCN(c2ccc(F)cc2)CC1 [ASM-049, 1,1-Diethyl-4-(4-fluorophenyl)-homopiperazinium Tosylate]
- IC50 [4, 17]: 452 µM
- IC50 [4, 18]: 109 µM
- IC50 [1, 9]: > 700 µM
- IC50 [1, 10]: 288 ± 61 µM
- IC50 [2, 19]: 331 µM
- IC50 [2, 20]: 252 µM
- IC50 [3, 13]: 81 ± 74 µM
- IC50 [3, 14]: 42 ± 34 µM

Structure (SMILES): CC[N+]1(C)CCCN(c2ccccc2)CC1 (stereo not drawn) [ASM-055, 1-Ethyl-1-Methyl-4-(phenyl)-homopiperazinium Tosylate]
- IC50 [1, 9]: 622 ± 211 µM
- IC50 [1, 10]: 272 ± 65 µM
- inhibition at 300 µM [2, 11]: 66%
- inhibition at 100 µM [2, 12]: 36%
- IC50 [3, 13]: 60 ± 26 µM
- IC50 [3, 14]: 28 ± 15 µM

Structure (SMILES): C[N+]1(C)CCCN(c2ccc(C(F)(F)F)cc2)CC1 [ASM-058, 1,1-Dimethyl-4-(4-trifluoromethylphenyl)-homopiperazinium Tosylate]
- IC50 [1, 15]: 356 ± 143 µM
- IC50 [1, 16]: 210 ± 82 µM
- IC50 [2, 21]: 472 µM
- IC50 [2, 22]: 299 µM
- IC50 [3, 13]: 22 ± 10 µM
- IC50 [3, 14]: 27 ± 26 µM

Structure (SMILES): Cc1cccc(N2CCC[N+](C)(C)CC2)c1 [ASM-068, 4-Dimethyl-1-(3-methylphenyl)-homopiperazinium Tosylate]
- IC50 ([4]; Calu-3, 72 h, read-out: IC50 Day 3): > 1000 µM
- IC50 ([4]; Calu-3, 144 h, read-out: IC50 Day 6): 52 µM
- IC50 [1, 15]: 580 ± 85 µM
- IC50 [1, 16]: 233 ± 31 µM
- IC50 [2, 21]: 298 µM
- IC50 [2, 22]: 179 µM
- IC50 [3, 13]: 36 ± 17 µM
- IC50 [3, 14]: 20 ± 16 µM

Structure (SMILES): C[N+]1(C)CCCN(c2ccc(C(F)(F)F)cc2)CC1 [ASM-071, 4-Dimethyl-1-(4-trifluorophenyl)-homopiperazinium Iodide]
- IC50 ([1]; read-out: IC50 Day 3, H520, day 3 in culture): 523 ± 292 µM
- IC50 ([1]; read-out: IC50 Day 6, H520, day 6 in culture): 235 ± 179 µM
- IC50 [3, 7]: 25 ± 15 µM
- IC50 [3, 8]: 18 ± 9 µM

Structure (SMILES): CC[N+]1(CC)CCCN(c2ccc(O)cc2)CC1 [ASM-073, 1,1-Diethyl-4-(phenyl-4-hydroxy)-homopiperazinium tosylate]
- IC50 [1, 15]: 187 ± 28 µM
- IC50 [1, 16]: 148 ± 14 µM
- inhibition at 100 µM ([2]; NCI-H82, 72 h): 100%
- inhibition at 300 µM ([2]; NCI-H82, 72 h): 100%
- IC50 [3, 13]: 119 ± 49 µM
- IC50 [3, 14]: 161 ± 82 µM

Structure (SMILES): C[N+]1(C)[C@@H]2C[C@@H](OC(=O)C(O)(c3cccs3)c3cccs3)C[C@H]1[C@@H]1O[C@@H]12 [Tiotropium, reference compound]
- cell proliferation / cell growth inhibition (in words) ([1]; H520, day 3 and day 6, text on figures): no significant cell growth inhibition
- IC50 (in words) ([1]; H520, cell line not given): No IC50 could be calculated
- cell proliferation / cell growth inhibition (in words) ([2]; H82, day 3 and day 6, text on figures): no significant cell growth inhibition
- IC50 (in words) ([2]; H82, cell line not given): No IC50 could be calculated
- cell proliferation / cell growth inhibition (in words) ([3]; A549, day 3 and day 6, text on figures): no significant cell growth inhibition
- IC50 (in words) ([3]; A549, cell line not given): No IC50 could be calculated

Structure (SMILES): CC(C)[N+]1(C)[C@@H]2CC[C@H]1C[C@@H](OC(=O)C(CO)c1ccccc1)C2 (stereo partly drawn) [ipratropium, reference compound]
- cytotoxic effect ([3]; A549, at 1000 μM): cytotoxic effect
